Experimental data: PMC8597039, “Fluorescent Amino Acid Initiated de novo Cyclic Peptides for the Label‐Free Assessment of Cell Permeability” (Chemmedchem, 2021)
Where a SMILES comes first, the peptide text is derived from it. [ ]: non-standard residue; d: D form. Ala(azulen-1-yl) = N[C@@H](Cc1ccc2cccccc1-2)C(=O)O; Trp(4-CN) = N#Cc1cccc2[nH]cc(C[C@H](N)C(=O)O)c12

Test system: U2OS cells
Assay: Live cell fluorescence microscopy of peptide uptake
Settings: 37 °C, excitation 340 nm
[1] = 50 µM peptide in OPTI-MEM, 20 min, 0.5% DMSO, washed once, ET460/50m (4CNW) or ET395/25x (AzAla) emission filter

Row | intracellular fluorescence (cell uptake) (50 µM peptide, 24 h, ET460/50m emission filter) | Structure (SMILES) | intracellular fluorescence (cell uptake) [1]
1 |  | CC(=O)N[C@@H](Cc1ccc2cccccc1-2)C(=O)NCC(=O)N[C@@H](CCCNC(=N)N)C(=O)N[C@@H](CCCCN)C(=O)N[C@@H](CCCCN)C(=O)N[C@@H](CCCNC(=N)N)C(=O)N[C@@H](CCCNC(=N)N)C(=O)N[C@@H](CCC(N)=O)C(=O)N[C@@H](CCCNC(=N)N)C(=O)N[C@@H](CCCNC(=N)N)C(=O)N[C@@H](CCCNC(=N)N)C(=O)N1CCC[C@H]1C(=O)N[C@@H](CCC(N)=O)C(=O)N1CCC[C@H]1C(=O)N[C@@H](CCCCN)C(=O)N[C@@H](CCCCN)C(=O)N[C@@H](CCCCN)C(=O)N[C@@H](CCCNC(=N)N)C(=O)N[C@@H](CCCCN)C(=O)N[C@H](C(N)=O)C(C)C [AzAla‐P3] (Ac-[Ala(azulen-1-yl)]GRKKRRQRRRPQPKKKRKV-NH2) | considerable intracellular fluorescence
2 |  | CC(=O)N[C@@H](Cc1c[nH]c2cccc(C#N)c12)C(=O)NCC(=O)N[C@@H](CCCNC(=N)N)C(=O)N[C@@H](CCCCN)C(=O)N[C@@H](CCCCN)C(=O)N[C@@H](CCCNC(=N)N)C(=O)N[C@@H](CCCNC(=N)N)C(=O)N[C@@H](CCC(N)=O)C(=O)N[C@@H](CCCNC(=N)N)C(=O)N[C@@H](CCCNC(=N)N)C(=O)N[C@@H](CCCNC(=N)N)C(=O)N1CCC[C@H]1C(=O)N[C@@H](CCC(N)=O)C(=O)N1CCC[C@H]1C(=O)N[C@@H](CCCCN)C(=O)N[C@@H](CCCCN)C(=O)N[C@@H](CCCCN)C(=O)N[C@@H](CCCNC(=N)N)C(=O)N[C@@H](CCCCN)C(=O)N[C@H](C(N)=O)C(C)C [4CNW‐P3] (Ac-[Trp(4-CN)]GRKKRRQRRRPQPKKKRKV-NH2) | considerable intracellular fluorescence
3 | appreciable intracellular fluorescence | CC[C@H](C)[C@@H]1NC(=O)[C@H](Cc2c[nH]c3ccccc23)NC(=O)[C@H](Cc2c[nH]c3cccc(C#N)c23)NC(=O)[C@H](CC(=O)O)NC(=O)CNC(=O)[C@H](CO)NC(=O)[C@H](CC(=O)O)NC(=O)[C@H](CC(=O)O)NC(=O)[C@H](CC(C)C)NC(=O)[C@H](Cc2ccc(O)cc2)NC(=O)[C@H](CC(C)C)NC(=O)[C@@H](Cc2c[nH]c3ccccc23)NC(=O)CSC[C@@H](C(=O)NCC(N)=O)NC1=O [4CNW‐P4] | 
